# From ChEMBL document CHEMBL1909046, “DrugMatrix in vitro pharmacology data”
# Target: T1, Muscarinic acetylcholine receptor M2 (Homo sapiens, UniProt P08172); also: in other assays of this panel Not Active means under 50% inhibition at 10 µM
# T1 sequence (P08172 whole entry): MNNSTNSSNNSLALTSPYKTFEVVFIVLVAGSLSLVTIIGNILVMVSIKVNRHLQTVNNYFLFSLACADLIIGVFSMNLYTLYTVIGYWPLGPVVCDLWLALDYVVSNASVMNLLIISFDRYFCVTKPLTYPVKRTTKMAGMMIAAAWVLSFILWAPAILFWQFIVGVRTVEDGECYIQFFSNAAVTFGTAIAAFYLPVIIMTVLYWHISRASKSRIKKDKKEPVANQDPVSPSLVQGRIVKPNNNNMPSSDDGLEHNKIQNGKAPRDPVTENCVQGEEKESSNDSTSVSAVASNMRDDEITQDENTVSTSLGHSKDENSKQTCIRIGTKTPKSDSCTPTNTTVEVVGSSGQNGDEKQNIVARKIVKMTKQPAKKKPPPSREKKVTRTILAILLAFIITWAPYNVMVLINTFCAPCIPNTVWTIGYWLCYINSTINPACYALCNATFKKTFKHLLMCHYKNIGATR
# Assay: not given
# Type: cell membranes, CHO-K1, Membrane
# Conditions: cho-k1
row,SMILES,IC50
1,Cc1ncc([N+](=O)[O-])n1CCO [METRONIDAZOLE],Not Active
2,CC(C)(C(=O)c1cccnc1)c1cccnc1 [METYRAPONE],Not Active
3,Oc1ccc(OCc2ccccc2)cc1 [MONOBENZONE],Not Active
4,CC(C)(Oc1ccc(C2CCCc3ccccc32)cc1)C(=O)O (configuration not stated) [NAFENOPIN],Not Active
5,COc1ccc2cc([C@H](C)C(=O)O)ccc2c1 [NAPROXEN],Not Active
6,CC(C)[C@H]1CC[C@H](C(=O)N[C@H](Cc2ccccc2)C(=O)O)CC1 [NATEGLINIDE],Not Active
7,CCN[C@@H]1C[C@H](N)[C@@H](O[C@H]2OC(CN)=CC[C@H]2N)[C@H](O)[C@H]1O[C@H]1OC[C@](C)(O)[C@H](NC)[C@H]1O [NETILMICIN],Not Active
8,COC(=O)C1=C(C)NC(C)=C(C(=O)OCC(C)C)C1c1ccccc1[N+](=O)[O-] (configuration not stated) [NISOLDIPINE],Not Active
9,CCOC(=O)C1=C(C)NC(C)=C(C(=O)OC)C1c1cccc([N+](=O)[O-])c1 (configuration not stated) [NITRENDIPINE],Not Active

# Target: T2, D(4) dopamine receptor (Homo sapiens, UniProt P21917)
# T2 sequence (P21917 whole entry): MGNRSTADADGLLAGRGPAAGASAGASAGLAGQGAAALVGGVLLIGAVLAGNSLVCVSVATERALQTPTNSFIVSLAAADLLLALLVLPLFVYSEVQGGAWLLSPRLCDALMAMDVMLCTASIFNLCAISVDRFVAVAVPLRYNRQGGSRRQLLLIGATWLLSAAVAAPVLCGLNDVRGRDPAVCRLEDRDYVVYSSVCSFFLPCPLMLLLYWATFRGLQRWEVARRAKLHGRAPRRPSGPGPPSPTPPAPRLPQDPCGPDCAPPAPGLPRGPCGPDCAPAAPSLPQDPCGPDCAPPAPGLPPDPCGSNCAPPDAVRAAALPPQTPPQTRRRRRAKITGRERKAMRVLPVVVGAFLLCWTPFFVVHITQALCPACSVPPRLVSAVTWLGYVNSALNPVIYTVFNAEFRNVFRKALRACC
# Assay: DRUGMATRIX: Dopamine D4.2 radioligand binding (ligand: [3H] Spiperone)
# Type: cell membranes, Membrane
# Conditions: cho-k1; Not Active = under 50% inhibition at 10 µM
row,SMILES,IC50
1,Cc1ncc([N+](=O)[O-])n1CCO [METRONIDAZOLE],Not Active
2,CC(C)(C(=O)c1cccnc1)c1cccnc1 [METYRAPONE],Not Active
3,Oc1ccc(OCc2ccccc2)cc1 [MONOBENZONE],Not Active
4,CC(C)(Oc1ccc(C2CCCc3ccccc32)cc1)C(=O)O (configuration not stated) [NAFENOPIN],Not Active
5,COc1ccc2cc([C@H](C)C(=O)O)ccc2c1 [NAPROXEN],Not Active
6,CC(C)[C@H]1CC[C@H](C(=O)N[C@H](Cc2ccccc2)C(=O)O)CC1 [NATEGLINIDE],Not Active
7,CCN[C@@H]1C[C@H](N)[C@@H](O[C@H]2OC(CN)=CC[C@H]2N)[C@H](O)[C@H]1O[C@H]1OC[C@](C)(O)[C@H](NC)[C@H]1O [NETILMICIN],Not Active
8,COC(=O)C1=C(C)NC(C)=C(C(=O)OCC(C)C)C1c1ccccc1[N+](=O)[O-] (configuration not stated) [NISOLDIPINE],Not Active
9,CCOC(=O)C1=C(C)NC(C)=C(C(=O)OC)C1c1cccc([N+](=O)[O-])c1 (configuration not stated) [NITRENDIPINE],Not Active

# Target: Carbonic anhydrase 2 (Homo sapiens, UniProt P00918)
# Assay: DRUGMATRIX: Carbonic Anhydrase II enzyme inhibition (substrate: 4-Nitrophenyl acetate (4-NPA))
# Type: tissue-based, Erythrocyte
# Conditions: erythrocyte; Not Active = under 50% inhibition at 10 µM
row,SMILES,IC50
1,Cc1ncc([N+](=O)[O-])n1CCO [METRONIDAZOLE],Not Active
2,CC(C)(C(=O)c1cccnc1)c1cccnc1 [METYRAPONE],Not Active
3,Oc1ccc(OCc2ccccc2)cc1 [MONOBENZONE],Not Active
4,CC(C)(Oc1ccc(C2CCCc3ccccc32)cc1)C(=O)O (configuration not stated) [NAFENOPIN],Not Active
5,COc1ccc2cc([C@H](C)C(=O)O)ccc2c1 [NAPROXEN],Not Active
6,CC(C)[C@H]1CC[C@H](C(=O)N[C@H](Cc2ccccc2)C(=O)O)CC1 [NATEGLINIDE],Not Active
7,CCN[C@@H]1C[C@H](N)[C@@H](O[C@H]2OC(CN)=CC[C@H]2N)[C@H](O)[C@H]1O[C@H]1OC[C@](C)(O)[C@H](NC)[C@H]1O [NETILMICIN],Not Active
8,COC(=O)C1=C(C)NC(C)=C(C(=O)OCC(C)C)C1c1ccccc1[N+](=O)[O-] (configuration not stated) [NISOLDIPINE],Not Active
9,CCOC(=O)C1=C(C)NC(C)=C(C(=O)OC)C1c1cccc([N+](=O)[O-])c1 (configuration not stated) [NITRENDIPINE],Not Active

# Target: Matrix metalloproteinase-9 (Homo sapiens, UniProt P14780);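 also: inhibition of isolated MMP-9 enzyme activity toward a synthetic peptide substrate, from the DrugMatrix protease screening panel; in other assays of this panel Not Active means under 50% inhibition at 10 µM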
# Assay: biochemical
# Type: cell-based
# Conditions: not given
# Chain of Matrix metalloproteinase-9 (P14780 whole entry): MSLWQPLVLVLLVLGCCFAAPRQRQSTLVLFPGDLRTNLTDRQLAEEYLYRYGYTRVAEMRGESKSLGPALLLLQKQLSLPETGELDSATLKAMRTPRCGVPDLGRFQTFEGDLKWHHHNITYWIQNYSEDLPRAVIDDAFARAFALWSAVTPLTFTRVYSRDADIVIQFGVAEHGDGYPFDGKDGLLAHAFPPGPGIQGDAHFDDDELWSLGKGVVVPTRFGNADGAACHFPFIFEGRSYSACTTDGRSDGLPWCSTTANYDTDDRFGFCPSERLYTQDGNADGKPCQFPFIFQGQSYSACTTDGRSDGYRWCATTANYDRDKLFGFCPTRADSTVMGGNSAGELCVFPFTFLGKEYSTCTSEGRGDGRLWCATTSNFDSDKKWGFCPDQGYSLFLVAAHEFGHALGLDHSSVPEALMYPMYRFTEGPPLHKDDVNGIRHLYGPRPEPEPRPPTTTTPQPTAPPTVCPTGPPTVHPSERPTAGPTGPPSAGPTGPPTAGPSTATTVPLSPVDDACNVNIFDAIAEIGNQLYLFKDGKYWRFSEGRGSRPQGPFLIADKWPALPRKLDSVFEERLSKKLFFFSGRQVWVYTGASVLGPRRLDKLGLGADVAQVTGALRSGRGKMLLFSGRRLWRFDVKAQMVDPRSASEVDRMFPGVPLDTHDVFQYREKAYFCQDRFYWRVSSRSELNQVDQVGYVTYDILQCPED
row,SMILES,IC50
1,Cc1ncc([N+](=O)[O-])n1CCO [METRONIDAZOLE],Not Active
2,CC(C)(C(=O)c1cccnc1)c1cccnc1 [METYRAPONE],Not Active
3,Oc1ccc(OCc2ccccc2)cc1 [MONOBENZONE],Not Active
4,CC(C)(Oc1ccc(C2CCCc3ccccc32)cc1)C(=O)O (configuration not stated) [NAFENOPIN],Not Active
5,COc1ccc2cc([C@H](C)C(=O)O)ccc2c1 [NAPROXEN],Not Active
6,CC(C)[C@H]1CC[C@H](C(=O)N[C@H](Cc2ccccc2)C(=O)O)CC1 [NATEGLINIDE],Not Active
7,CCN[C@@H]1C[C@H](N)[C@@H](O[C@H]2OC(CN)=CC[C@H]2N)[C@H](O)[C@H]1O[C@H]1OC[C@](C)(O)[C@H](NC)[C@H]1O [NETILMICIN],Not Active
8,COC(=O)C1=C(C)NC(C)=C(C(=O)OCC(C)C)C1c1ccccc1[N+](=O)[O-] (configuration not stated) [NISOLDIPINE],Not Active
9,CCOC(=O)C1=C(C)NC(C)=C(C(=O)OC)C1c1cccc([N+](=O)[O-])c1 (configuration not stated) [NITRENDIPINE],Not Active

# System: not listed separately
# Assay: DRUGMATRIX: Calcium Channel Type L, Benzothiazepine radioligand binding (ligand: [3H] Diltiazem)
# Type: cell membranes, Rattus norvegicus, Wistar, Brain, Membrane
# Conditions: Not Active = under 50% inhibition at 10 µM
SMILES,IC50,Ki
Cc1ncc([N+](=O)[O-])n1CCO [METRONIDAZOLE],Not Active,Not Active
CC(C)(C(=O)c1cccnc1)c1cccnc1 [METYRAPONE],Not Active,Not Active
Oc1ccc(OCc2ccccc2)cc1 [MONOBENZONE],Not Active,Not Active
CC(C)(Oc1ccc(C2CCCc3ccccc32)cc1)C(=O)O (configuration not stated) [NAFENOPIN],Not Active,Not Active
COc1ccc2cc([C@H](C)C(=O)O)ccc2c1 [NAPROXEN],Not Active,Not Active
CC(C)[C@H]1CC[C@H](C(=O)N[C@H](Cc2ccccc2)C(=O)O)CC1 [NATEGLINIDE],Not Active,Not Active
CCN[C@@H]1C[C@H](N)[C@@H](O[C@H]2OC(CN)=CC[C@H]2N)[C@H](O)[C@H]1O[C@H]1OC[C@](C)(O)[C@H](NC)[C@H]1O [NETILMICIN],Not Active,Not Active

# Same assay, conditions: Not Active = under 50% inhibition at 10 µM; read-out: IC50
row,SMILES,IC50 [nM]
1,COC(=O)C1=C(C)NC(C)=C(C(=O)OCC(C)C)C1c1ccccc1[N+](=O)[O-] (configuration not stated) [NISOLDIPINE],2.48
2,CCOC(=O)C1=C(C)NC(C)=C(C(=O)OC)C1c1cccc([N+](=O)[O-])c1 (configuration not stated) [NITRENDIPINE],1.56

# Same assay, conditions: Not Active = under 50% inhibition at 10 µM; read-out: Ki
row,SMILES,Ki [nM]
1,COC(=O)C1=C(C)NC(C)=C(C(=O)OCC(C)C)C1c1ccccc1[N+](=O)[O-] (configuration not stated) [NISOLDIPINE],2.21
2,CCOC(=O)C1=C(C)NC(C)=C(C(=O)OC)C1c1cccc([N+](=O)[O-])c1 (configuration not stated) [NITRENDIPINE],1.39

# System: not listed separately
# Assay: DRUGMATRIX: Potassium Channel [KATP] radioligand binding (ligand: [3H] Glyburide)
# Type: cell membranes, Membrane
# Conditions: hit-t15; Not Active = under 50% inhibition at 10 µM
SMILES,IC50,Ki
Cc1ncc([N+](=O)[O-])n1CCO [METRONIDAZOLE],Not Active,Not Active
CC(C)(C(=O)c1cccnc1)c1cccnc1 [METYRAPONE],Not Active,Not Active
Oc1ccc(OCc2ccccc2)cc1 [MONOBENZONE],Not Active,Not Active
CC(C)(Oc1ccc(C2CCCc3ccccc32)cc1)C(=O)O (configuration not stated) [NAFENOPIN],Not Active,Not Active
COc1ccc2cc([C@H](C)C(=O)O)ccc2c1 [NAPROXEN],Not Active,Not Active
CCN[C@@H]1C[C@H](N)[C@@H](O[C@H]2OC(CN)=CC[C@H]2N)[C@H](O)[C@H]1O[C@H]1OC[C@](C)(O)[C@H](NC)[C@H]1O [NETILMICIN],Not Active,Not Active
COC(=O)C1=C(C)NC(C)=C(C(=O)OCC(C)C)C1c1ccccc1[N+](=O)[O-] (configuration not stated) [NISOLDIPINE],Not Active,Not Active
CCOC(=O)C1=C(C)NC(C)=C(C(=O)OC)C1c1cccc([N+](=O)[O-])c1 (configuration not stated) [NITRENDIPINE],Not Active,Not Active

# Same assay, conditions: hit-t15; Not Active = under 50% inhibition at 10 µM; read-out: IC50
row,SMILES,IC50 [nM]
1,CC(C)[C@H]1CC[C@H](C(=O)N[C@H](Cc2ccccc2)C(=O)O)CC1 [NATEGLINIDE],1670

# Same assay, conditions: hit-t15; Not Active = under 50% inhibition at 10 µM; read-out: Ki
row,SMILES,Ki [nM]
1,CC(C)[C@H]1CC[C@H](C(=O)N[C@H](Cc2ccccc2)C(=O)O)CC1 [NATEGLINIDE],189
